Among the data in patent US20200087258A1, “INHIBITOR OF CITRATE TRANSPORTER AND THEIR USE IN THERAPY” (Eternygen GmbH, priority 2017, published 2020) are IC50 values, retold here.

The experiment addresses INDY (Homo sapiens, UniProt Q86YT5). The experiment is described as follows: 14C-citrate uptake in HEK293 cells overexpressing recombinant human INDY (NaCT). Type of experiment: cell-based. On the set-up: expressed in transfected cells; host or cells: HEK293. How it is done: The compound was obtained by screening of a library containing more than 50,000 lead-like compounds and fragments. The library was tested using a functional citrate uptake assay with HEK293 cells overexpressing recombinant human INDY. The following hit confirmation was conducted in the same assay system. To confirm the activity of selected compounds on the target INDY another cell assay was conducted. In this assay system citrate uptake was measured using HepG2 cells which endogenously express INDY. Furthermore selectivity of selected compounds was tested for two other transporters in different assay systems. The first transporter was the glutamate transporter GLT-1 tested in a glutamate uptake assays using HEK293 cells overexpressing recombinant human GLT-1. The second transporter was the glucose transporter GLUT1 tested in a glucose uptake assay using Huh-7 cells which endogenously express GLUT1. Compounds were considered to be selective with an at least 5-fold higher activity for INDY than for the other two transporters.
Cells were maintained in cell medium using cell culture grade flasks (CellSTACK Corning, 500 cm2 dishes or T175 depending on cell number). The selection antibiotic and G418 (800 μg/ml) was added during cultivation but not for seeding into assay plates. For splitting, cells were washed with PBS (w/o Ca2+, Mg2+, phenol red) and detached with Trypsin/EDTA. Throughout cultivation cells were kept sub-confluent. Detached cells (50,000 cells/well) were seeded in 96-well plates (white, clear bottom from Corning #655098) and incubated over night before usage in the assay. The following media were used. For HEK293 cells expressing INDY MEM (PAA)+10% FCS+1×P/S+2 mM L-Gln; for HEK293 cells expressing GLT-1 DMEM (Gibco)+10% FCS+400 µg/ml G418; for Huh7 cells DMEM (Gibco)+10% FCS+2 mM L-Gin (+1×P/S); for HepG2 cells MEM (PAA, Cat # E15-024)+10% FCS+2 mM L-Gin+1×NEAA+1 mM Na-Pyruvat
The following assay buffers for the particular uptake reaction were used. Citrate uptake buffer: 120 mM NaCl, 5.4 mM KCl, 0.8 mM MgSO4, 5 mM glucose, 1.8 mM CaCl2, 25 mM Hepes, 25 mM MES, pH 6.5. Glutamate uptake buffer: HBSS, 1 mM CaCl2, 1 mM MgCl2, 20 mM Hepes pH 7.4. Glucose uptake buffer: 25 mM Hepes+25 mM MES pH 7.4, 120 mM NaCl, 5.4 mM KCl, 1.8 mM CaCl2, 0.8 mM MgSO4.
INDY mediated citrate uptake was determined in HEK293 cells. To determine the uptake of ^14C labelled citrate into cells, HEK293 cells over-expressing human NaCT were used. Cloning of human NaCT was done in analogy as described in Birkenfeld et al. (Birkenfeld et al., 2011, Cell Metabolism 14, 184-195, 2011).
Human NaCT HEK293 cells were seeded into white clear-bottom 96-well plates (50,000/well) in the presence of 4 μg/ml Poly-D-Lysine and incubated at 37° C. for 16-24 hours. On the days of the assay the plates were washed once with assay buffer using automated washing/LS 405 Selectors, BioTek ending with a buffer volume of 40 μl. Then 5 μl of compound solution in assay buffer was added and incubated for 5-30 min at 37° C. in cell incubator, HERA cell Heraeus. Afterwards 10 μl of substrate 14C-citrate ([…]/[…] per well) were added and incubated for another 20-90 min at 37° C. in cell incubator, HERAcell. Then plates were washed twice with 200 μl ice-cold assay buffer and residual volume was discarded. For cell lysis 50 μl ice-cold NaOH (100 mM) was added and incubated for 15 minutes at RT on a plate shaker. Finally, 200 μl scintillation fluid (scintillator OptiPhase Supermix, Perkin Elmer) was added. After 15 min incubation at RT without shaking, plates were measured using a TopCount reader system (Perkin Elmer). As a positive control 10 mM citrate was applied. It is possible to use this assay also in analogy in a 384-well plate format.

INDY, sequence (Q86YT5 whole entry, the tested form may be a part): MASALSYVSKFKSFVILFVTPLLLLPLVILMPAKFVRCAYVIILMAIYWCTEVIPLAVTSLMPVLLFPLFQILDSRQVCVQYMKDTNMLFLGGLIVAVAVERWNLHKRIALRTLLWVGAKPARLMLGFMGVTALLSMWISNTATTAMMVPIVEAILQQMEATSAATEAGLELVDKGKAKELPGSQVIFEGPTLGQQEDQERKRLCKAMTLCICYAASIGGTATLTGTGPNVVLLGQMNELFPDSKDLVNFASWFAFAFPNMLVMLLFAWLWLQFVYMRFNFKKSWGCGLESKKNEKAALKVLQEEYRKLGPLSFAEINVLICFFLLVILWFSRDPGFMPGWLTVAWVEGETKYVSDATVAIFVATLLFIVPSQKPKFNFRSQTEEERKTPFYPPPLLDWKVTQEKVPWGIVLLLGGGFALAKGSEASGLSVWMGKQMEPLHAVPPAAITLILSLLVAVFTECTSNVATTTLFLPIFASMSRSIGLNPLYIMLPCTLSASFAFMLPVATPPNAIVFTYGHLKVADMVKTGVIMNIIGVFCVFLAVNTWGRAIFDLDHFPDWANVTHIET

`CN(C)CCOc1ccc(S(=O)(=O)N2CCC(C(=O)NCc3ccccc3F)CC2)cc1` [Example 102, 1-(4-[2-(dimethylamino)ethoxy]benzenesulfonyl)-N-[(2-fluorophenyl)methyl]piperidine-4-carboxamide]: the IC50 is over 20 µM.
The result for `CN(Cc1ccccn1)C(=O)C1CCN(S(=O)(=O)c2cc(Cl)cc(Cl)c2)CC1` [Example 128, 1-(3,5-dichlorobenzenesulfonyl)-N-methyl-N-[(pyridin-2-yl)methyl]piperidine-4-carboxamide] reads over 20 µM; that for `O=C(NCc1ccc2[nH]cnc2c1)C1CCN(S(=O)(=O)/C=C/c2ccccc2)CC1` [Example 14, N-[(1H-1,3-benzodiazol-5-yl)methyl]-1-[(E)-2-phenylethenesulfonyl]piperidine-4-carboxamide], over 20 µM.
The result for `O=C(NCc1ccccc1F)C1CCN(S(=O)(=O)c2ccc(CN3CCCC3)cc2)CC1` [Example 105, N-[(2-fluorophenyl)methyl]-1-{4-[(pyrrolidin-1-yl)methyl]benzenesulfonyl}piperidine-4-carboxamide] reads over 20 µM; that for `O=C(NCc1ccccn1)C1CCN(S(=O)(=O)c2cccc(OC(F)(F)F)c2)CC1` [Example 93, N-[(pyridin-2-yl)methyl]-1-[3-(trifluoromethoxy)benzenesulfonyl]piperidine-4-carboxamide], 16.4 µM.
With `CNC(C)c1cccc(S(=O)(=O)N2CCC(C(=O)NCc3ccccc3F)CC2)c1` (stereo not shown) [Example 110, N-[(2-fluorophenyl)methyl]-1-{3-[1-(methylamino)ethyl]benzenesulfonyl}piperidine-4-carboxamide] the figure was over 20 µM; with `COC(=O)c1ccccc1CNC(=O)C1CCN(S(=O)(=O)/C=C/c2ccccc2)CC1` [Example 66, methyl 2-[({1-[(E)-2-phenylethenesulfonyl]piperidin-4-yl}formamido)methyl]benzoate], 12.9 µM; with `NC(=O)c1ccccc1CNC(=O)C1CCN(S(=O)(=O)c2cc(Cl)cc(Cl)c2)CC1` [Example 80, N-[(2-carbamoylphenyl)methyl]-1-(3,5-dichlorobenzenesulfonyl)pipendine-4-carboxamide], over 20 µM.
For the compound `CC(C)(C)c1ccc(S(=O)(=O)N2CC(C(=O)NCc3ccccn3)C2)cc1` [Example 51, 1-(4-tert-butylbenzenesulfonyl)-N-[(pyridin-2-yl)methyl]azetidine-3-carboxamide], the IC50 stood at 14.4 µM.
For the compound `O=C(O)c1ccc(S(=O)(=O)N2CCC(C(=O)NCc3ccccc3F)CC2)cc1` [Example 91, 4-[(4-{[(2-fluorophenyl)methyl]carbamoyl}piperidin-1-yl)sulfonyl]benzoic acid], the IC50 was over 20 µM.
Regarding `O=C(NCc1ccccc1F)C1CCN(S(=O)(=O)c2ccc(O)cc2)CC1` [Example 72, N-[(2-fluorophenyl)methyl]-1-(4-hydroxybenzenesulfonyl)pipendine-4-carboxamide], the IC50 was over 20 µM.
The result for `CC(O)c1cccc(S(=O)(=O)N2CCC(C(=O)NCc3ccccc3F)CC2)c1` (stereo not shown) [Example 107, N-[(2-fluorophenyl)methyl]-1-[3-(1-hydroxyethyl)benzenesulfonyl]piperidine-4-carboxamide] reads 13.2 µM.
With `O=C(NCc1ccccc1F)C1CCN(S(=O)(=O)c2ccc(CO)cc2)CC1` [Example 100, N-[(2-fluorophenyl)methyl]-1-[4-(hydroxymethyl)benzenesulfonyl]piperidine-4-carboxamide] the figure was over 20 µM.
With `CC(C)Oc1ccccc1CNC(=O)C1CCN(S(=O)(=O)/C=C/c2ccccc2)CC1` [Example 54, 1-[(E)-2-phenylethenesulfonyl]-N-{[2-(propan-2-yloxy)phenyl]methyl}piperidine-4-carboxamide] the figure was over 20 µM; with `CS(=O)(=O)c1ccccc1CNC(=O)C1CCN(S(=O)(=O)/C=C/c2ccccc2)CC1` [Example 18, N-[(2-methanesulfonylphenyl)methyl]-1-[(E)-2-phenylethenesulfonyl]piperidine-4-carboxamide], over 20 µM.
Take `NC(=O)c1ccc(S(=O)(=O)N2CCC(C(=O)NCc3ccccc3F)CC2)cc1` [Example 77, 1-(4-carbamoylbenzenesulfonyl)-N-[(2-fluorophenyl)methyl]pipendine-4-carboxamide]: the IC50 was over 20 µM.
The result for `O=C(NCc1ccccn1)C1CCN(S(=O)(=O)c2cccc(Cl)c2Cl)CC1` [Example 83, 1-(2,3-dichlorobenzenesulfonyl)-N-[(pyridin-2-yl)methyl]pipendine-4-carboxamide] reads over 20 µM.
As for `NCc1ccccc1CNC(=O)C1CCN(S(=O)(=O)c2cc(Cl)cc(Cl)c2)CC1` [Example 98, N-([2-(aminomethyl)phenyl]methyl)-1-(3,5-dichlorobenzenesulfonyl)piperidine-4-carboxamide], the half-maximal inhibitory concentration (IC50) was over 20 µM.
The result for `CN(C)c1ccc(S(=O)(=O)N2CCC(C(=O)NCc3ccccn3)CC2)cc1` [Example 64, 1-[4-(dimethylamino)benzenesulfonyl]-N-[(pyridin-2-yl)methyl]piperidine-4-carboxamide] reads over 20 µM; that for `Cc1ccccc1CNC(=O)C1CCN(S(=O)(=O)/C=C/c2ccccc2)CC1` [Example 31, N-[(2-methylphenyl)methyl]-1-[(E)-2-phenylethenesulfonyl]piperidine-4-carboxamide], 15.2 µM; that for `O=C(NCc1ccccn1)C1CCN(S(=O)(=O)c2ccc(N3CCCC3)cc2)CC1` [Example 70, N-[(pyridin-2-yl)methyl]-1-[4-(pyrrolidin-1-yl)benzenesulfonyl]pipendine-4-carboxamide], over 20 µM.
As for `O=C(NCc1ccccn1)C1CCN(S(=O)(=O)c2ccccc2Cl)CC1` [Example 71, 1-(2-chlorobenzenesulfonyl)-N-[(pyridin-2-yl)methyl]pipendine-4-carboxamide], the IC50 stood at 14.4 µM.
With `C/C(=N\O)c1cccc(S(=O)(=O)N2CCC(C(=O)NCc3ccccc3F)CC2)c1` [Example 108, N-[(2-fluorophenyl)methyl]-1-{3-[(1E)-1-(hydroxyimino)ethyl]benzenesulfonyl}piperidine-4-carboxamide] the figure was 20.4 µM.
For the compound `CCCNC(C)c1cccc(S(=O)(=O)N2CCC(C(=O)NCc3ccccc3F)CC2)c1` (stereo not shown) [Example 109, N-[(2-fluorophenyl)methyl]-1-{3-[1-(propylamino)ethyl]benzenesulfonyl}piperidine-4-carboxamide], the 50% inhibitory concentration (IC50) was over 20 µM.
The result for `O=C(NCc1ccccn1)C1CCN(S(=O)(=O)c2c(Cl)cccc2Cl)CC1` [Example 63, 1-(2,6-dichlorobenzenesulfonyl)-N-[(pyridin-2-yl)methyl]piperidine-4-carboxamide] reads over 20 µM; that for `O=C(O)c1cccc(S(=O)(=O)N2CCC(C(=O)NCc3ccccc3F)CC2)c1` [Example 90, 3-[(4-{[(2-fluorophenyl)methyl]carbamoyl}piperidin-1-yl)sulfonyl]benzoic acid], over 20 µM.
With `O=C(NCc1ccccc1F)C1CN(S(=O)(=O)c2ccc(C(F)(F)F)cc2)C1` [Example 52, N-[(2-fluorophenyl)methyl]-1-[4-(trifluoromethyl)benzenesulfonyl]azetidine-3-carboxamide] the figure was over 20 µM; with `N#Cc1ccc(S(=O)(=O)N2CCC(C(=O)NCc3ccccc3F)CC2)cc1` [Example 13, 1-(4-cyanobenzenesulfonyl)-N-[(2-fluorophenyl)methyl]piperidine-4-carboxamide], 20.6 µM.
